Consider three molecules from patent publication US12280179B2 (Urotronic, Inc., priority 2012, dated 2025).

A short description of series [1]: stability of additives with paclitaxel under ethylene oxide sterilization, heating and aging. As to conditions: additive with paclitaxel; reacted with paclitaxel.
Series [2] in a line: BPH Preclinical Study 4: plasma paclitaxel concentration. Type of series: in vivo, dog. From the text: (§1) This study was completed on mongrel canines.
The conditions of series [3]: with the addition of BSA; cited from earlier work.
A short description of series [4]: Human clinical study, BPH: paclitaxel in blood, urine, semen. The format is in vivo.
Series [5] is described as follows: Human clinical study, urethral strictures: paclitaxel in blood, urine, semen. Type of series: in vivo.
Method: Clinical subjects were evaluated at 14, 30, 90, 180, 365 days, and 2 years after the index procedure. Evaluations included analysis of stricture free rate, uroflowmetry including Qmax, and PVR.
Series [6] has as its system prostate. The experiment in a line: BPH Preclinical Study 4: histology, clinical observation, urethra lumen diameter. The format is in vivo, dog.
Text: as §1

Series [7] can be described thus: BPH Preclinical Study 4: tissue pharmacokinetics of paclitaxel. The format is in vivo, dog.
Text: as §1

Series [8] concerns albumin. The settings on record: cited from earlier work.

For the molecule `O=C(O)c1ccccc1` [benzoic acid], in series [1], the “stability under ethylene oxide sterilization, heating, and aging process” value was “not stable”.
As for `CC(=O)O[C@H]1C(=O)[C@@]2(C)[C@H]([C@H](OC(=O)c3ccccc3)[C@]3(O)C[C@H](OC(=O)[C@H](O)[C@@H](NC(=O)c4ccccc4)c4ccccc4)C(C)=C1C3(C)C)[C@]1(OC(C)=O)CO[C@@H]1C[C@@H]2O` [paclitaxel], the plasma paclitaxel concentration entry in series [2] (maximum dose, 12 hour and later) was “BLOQ”; in series [2] (standard dose, all time-points (1, 3, 7, 12 hours, 1, 3, 7, 14, and 28 days)), “BLOQ”. In addition, in series [3], the “increase of solubility in PBS” value is “over 20 fold”. Moreover, the “Human urine paclitaxel concentration, average” value in series [4] (immediately post procedure) came out at 598 ng/mL; in series [5] (immediately post procedure) it was 184 ng/mL. Also, the entries for the “Human plasma paclitaxel concentration, average” value in series [4] (immediately post treatment) and in series [5] (immediately post treatment) were 0.2 ng/mL and 0.1 ng/mL, respectively. The concentration at 1 h was determined as 0.2 ng/mL in series [4] (male, human, plasma, 2.4 μg of paclitaxel per millimeter squared, 1 hour) and 28000 ng/g in series [7] (male, mongrel, dog, prostatic urethra, other: transurethral drug-coated balloon catheter, 6.8 mg). In series [4] (male, human, plasma, 2.4 μg of paclitaxel per millimeter squared, 3 hours), this molecule had a concentration at 3 h of 0.1 ng/mL. The concentration at 5 h in series [4] (male, human, plasma, 2.4 μg of paclitaxel per millimeter squared, 5 hours) was 0.1 ng/mL. The same molecule had a concentration at 10 h in series [4] (male, human, plasma, 2.4 μg of paclitaxel per millimeter squared, 10 hours) of 0.07 ng/mL. Moreover, the concentration at 24 h in series [4] (male, human, plasma, 2.4 μg of paclitaxel per millimeter squared, 24 hours) stood at 0.03 ng/mL. The concentration at 14 days in series [4] (male, human, semen, 2.4 μg of paclitaxel per millimeter squared, 14 days) is 5.3 ng/mL; in series [5] (human, semen) it was 2.5 ng/mL; in series [5] (human, urine), 0.3 ng/mL. In series [4] (male, human, urine, 2.4 μg of paclitaxel per millimeter squared, 4 days), this molecule returned a concentration at 4 days of 202 ng/mL. In addition, the concentration at 30 days in series [4] (male, human, urine, 2.4 μg of paclitaxel per millimeter squared, 30 days) is 5.1 ng/mL; in series [5] (human, semen), 1 ng/mL; in series [5] (human, urine), 0.1 ng/mL. Moreover, in series [5] (1 hour, 3 hours, 5 hours, 10 hours, 24 hours, and 5 days), the “Human plasma paclitaxel concentration” value is listed as “below the level of quantification”. Further, the concentration at 5 days in series [5] (human, urine, 5 days) worked out at 2.6 ng/mL. The clinical abnormalities result in series [6] (any animals, duration of the study) is “No significant clinical abnormalities”. Moreover, the prostate histology entry in series [6] (maximum dose animals, slower healing relative to standard dose and control) was “ongoing healing at 28 days”. Besides, the abnormalities or complications result in series [6] (maximum dose treatment arm using 19.6 mg of paclitaxel) is “no abnormalities or complications”. Further, the results for the “prostate drug concentration, maximum dose arm versus standard dose” value in series [7] (28 days) and in series [7] (70 days) were 4.5 times and 23 times, respectively. The “prostatic urethra drug concentration, maximum dose arm versus standard dose” value in series [7] (28 days) came to 11 times; in series [7] (70 days), 23 times. For the same molecule, the “average drug concentration, epididymis” value in series [7] (lowest, immediately after treatment) was 0.0017 µg/g. Moreover, in series [7] (male, mongrel, dog, prostate, other: transurethral drug-coated balloon catheter, 6.8 mg, standard dose arm, 28 days), the concentration at 28 days worked out at 20 ng/g. The same molecule came in with a concentration at 70 days in series [7] (male, mongrel, dog, prostatic urethra, other: transurethral drug-coated balloon catheter, 6.8 mg, standard dose arm, 70 days) of 4 ng/g. In series [7] (most samples, 28 days and beyond), the “nonurethral close proximity tissue sample concentrations” value was “at or below the limit of quantification”.
On to `CO[C@H]1C[C@@H]2CC[C@@H](C)[C@@](O)(O2)C(=O)C(=O)N2CCCC[C@H]2C(=O)O[C@H]([C@H](C)C[C@@H]2CC[C@@H](O)[C@H](OC)C2)CC(=O)[C@H](C)/C=C(\C)[C@@H](O)[C@@H](OC)C(=O)[C@H](C)C[C@H](C)/C=C/C=C/C=C/1C` [rapamycin], for which, in series [8], the protein bound is recorded as 92%. The “share of protein binding that is to albumin” value in series [8] (primarily to albumin) is reported as 97%.
